logD and IC50 data for 13 compounds are collected here from ChEMBL document CHEMBL1129133 (Bioorg Med Chem Lett, 1996).

Molecules are shown by their SMILES.

A short description of data set [1]: Lipophilicity was determined. In kind it is physicochemical. The settings on record: octanol/water.
Data set [2] has as its target Phosphodiesterase 1 (Rattus norvegicus, UniProt Q63421+Q9EPR9+Q01066). Description: Inhibition of Phosphodiesterase 1 from rat liver.
For data set [3], the target named is cGMP-specific 3',5'-cyclic phosphodiesterase (Homo sapiens, UniProt O76074). The data set is described as follows: Inhibition of Phosphodiesterase 5 from human corpus cavernosum.
Data set [4] concerns the target Phosphodiesterase 3 (Homo sapiens, UniProt Q14432+Q13370). The data set is described as follows: Inhibition of Phosphodiesterase 3 from rabbit platelets. More on the design: species or system Oryctolagus cuniculus. The settings on record: target entry is the homologue from another species.

On to `CCCc1nn(C)c2c(=O)[nH]c(-c3cc(S(=O)(=O)N4CCN(C)CC4)ccc3OCC)nc12`, for which the logD (in general, the decadic logarithm of the distribution of all forms, ionised or not, between an organic phase and buffer at a given pH) in data set [1] is 2.7.
On to `CCCc1n[nH]c2c(O)nc(-c3ccccc3OCC)nc12`, for which the results for the IC50 in data set [2] and in data set [3] were 860 nM and 82 nM, respectively.
As for `CCCc1n[nH]c2c(O)nc(-c3ccccc3O)nc12`, in data set [4], the IC50 (usually the concentration needed to halve the response being measured) was over 100 µM.
The same measure, in the same setting: the figure for `CCCc1n[nH]c2c(=O)[nH]c(-c3ccccc3)nc12` is 63 µM.
`CCCc1nn(C)c2c(O)nc(-c3cc(S(=O)(=O)N4CCN(C(N)=O)CC4)ccc3OCC)nc12` gave a logD in data set [1] of 2.3. For the same compound, the figures for the IC50 in data set [4] and in data set [2] were 34 µM and 110 nM, respectively.
Turning to `CCOc1ccccc1-c1nc2c(C)nn(C)c2c(=O)[nH]1`, the IC50 is over 100 µM in data set [4] and 3300 nM in data set [2].
`CCCc1nn(C)c2c(=O)[nH]c(-c3ccccc3[N+](=O)[O-])nc12` displayed an IC50 in data set [4] of over 100 µM.
For `CCCc1nn(C)c2c(=O)[nH]c(-c3ccccc3OCC3CC3)nc12`, the IC50 in data set [4] came to 47 µM.
On the same count and under the same terms, the figure for `CCCc1nn(C)c2c(=O)[nH]c(-c3ccccc3NS(C)(=O)=O)nc12` is 83 µM.
In data set [1], `CCCc1nn(C)c2c(=O)[nH]c(-c3ccccc3OCC)nc12` showed a logD of 4. The values for the IC50 in data set [4], in data set [2] and in data set [3] were over 100 µM, 790 nM and 27 nM, respectively.
In turn, `CCCc1nn(C)c2c(=O)[nH]c(-c3cc(S(=O)(=O)N4CCNCC4)ccc3OCC)nc12` gave a logD in data set [1] of 1.5. The IC50 in data set [4] is over 100 µM; in data set [2], 390 nM.
The like results for `CCCc1nn(C)c2c(=O)[nH]c(-c3cc(S(=O)(=O)N4CCN(CCO)CC4)ccc3OCC)nc12` [LODENAFIL] were, in that order, 2, 62 µM and 460 nM.
Regarding `CCCOc1ccccc1-c1nc2[nH]nnc2c(=O)[nH]1` [ZAPRINAST], the IC50 in data set [4] was over 100 µM; in data set [2], 9400 nM.
